# Reference: ChEMBL document CHEMBL3885881, “DrugMatrix”
# Organism: Rattus norvegicus
# Assay: DrugMatrix - Regimen: Daily Repeat
# Type: toxicity, organism-based, Sprague-Dawley
# Design: regimen Daily Repeat, gender Male, age 6-8 weeks
# Details: in vivo, po, route oral GAVAGE, vehicle 100 % WATER; for BASOPHIL / EOSINOPHIL / ERYTHROCYTE COUNT / HEMATOCRIT / HEMOGLOBIN / LEUKOCYTE COUNT / LYMPHOCYTE / MEAN CORPUSCULAR HEMOGLOBIN / MEAN CORPUSCULAR HEMOGLOBIN CONCENTRATION / MEAN CORPUSCULAR VOLUME / MONOCYTE / NEUTROPHIL / PLATELET COUNT: tissue Blood; for ALANINE AMINOTRANSFERASE / ALBUMIN / ALKALINE PHOSPHATASE / ASPARTATE AMINOTRANSFERASE / BLOOD UREA NITROGEN / CHLORIDE / CHOLESTEROL / CREATINE PHOSPHOKINASE / CREATININE / GLUCOSE / PHOSPHORUS / POTASSIUM / SODIUM / TOTAL BILIRUBIN / TOTAL PROTEIN: tissue Plasma
# [1] = 0 mg/kg, 72 h, dose level Control, time 3 day
# [2] = 0 mg/kg, 120 h, dose level Control, time 5 day
# [3] = 4 mg/kg, 72 h, dose level Low, time 3 day
# [4] = 4 mg/kg, 120 h, dose level Low, time 5 day
compound,measurement,setting,value
CCN(CC)CCOC(=O)C1(C2CCCCC2)CCCCC1 [DICYCLOMINE],BASOPHIL,[1],0%
same,EOSINOPHIL,[1],0.5%
same,ERYTHROCYTE COUNT,[1],5.8 x10E6/uL
same,HEMATOCRIT,[1],35.07%
same,HEMOGLOBIN,[1],14.12 G/DL
same,LEUKOCYTE COUNT,[1],13.7 x10E3/uL
same,LYMPHOCYTE,[1],82.33%
same,MEAN CORPUSCULAR HEMOGLOBIN,[1],24.38 pg
same,MEAN CORPUSCULAR HEMOGLOBIN CONCENTRATION,[1],40.28 G/DL
same,MEAN CORPUSCULAR VOLUME,[1],60.52 fL
same,MONOCYTE,[1],2.67%
same,NEUTROPHIL,[1],14.5%
same,PLATELET COUNT,[1],911.5 x10E3/uL
same,ALANINE AMINOTRANSFERASE,[1],36.83 u/L
same,ALBUMIN,[1],3.75 G/DL
same,ALKALINE PHOSPHATASE,[1],399.83 u/L
same,ASPARTATE AMINOTRANSFERASE,[1],66 u/L
same,BLOOD UREA NITROGEN,[1],14.67 mg/dL
same,CHLORIDE,[1],101.67 MEQ/L
same,CHOLESTEROL,[1],66.33 mg/dL
same,CREATINE PHOSPHOKINASE,[1],139.5 u/L
same,CREATININE,[1],0.92 mg/dL
same,GLUCOSE,[1],175 mg/dL
same,PHOSPHORUS,[1],11.42 mg/dL
same,POTASSIUM,[1],7.03 MEQ/L
same,SODIUM,[1],148.5 MEQ/L
same,TOTAL BILIRUBIN,[1],1.13 mg/dL
same,TOTAL PROTEIN,[1],6.87 G/DL
same,BASOPHIL,[2],0%
same,EOSINOPHIL,[2],0.2%
same,ERYTHROCYTE COUNT,[2],6.02 x10E6/uL
same,HEMATOCRIT,[2],36.48%
same,HEMOGLOBIN,[2],14.38 G/DL
same,LEUKOCYTE COUNT,[2],12.34 x10E3/uL
same,LYMPHOCYTE,[2],83%
same,MEAN CORPUSCULAR HEMOGLOBIN,[2],23.92 pg
same,MEAN CORPUSCULAR HEMOGLOBIN CONCENTRATION,[2],39.44 G/DL
same,MEAN CORPUSCULAR VOLUME,[2],60.66 fL
same,MONOCYTE,[2],3%
same,NEUTROPHIL,[2],13.8%
same,PLATELET COUNT,[2],1190.6 x10E3/uL
same,ALANINE AMINOTRANSFERASE,[2],43 u/L
same,ALBUMIN,[2],3.73 G/DL
same,ALKALINE PHOSPHATASE,[2],393 u/L
same,ASPARTATE AMINOTRANSFERASE,[2],62.33 u/L
same,BLOOD UREA NITROGEN,[2],16.33 mg/dL
same,CHLORIDE,[2],101.67 MEQ/L
same,CHOLESTEROL,[2],65.5 mg/dL
same,CREATINE PHOSPHOKINASE,[2],130.67 u/L
same,CREATININE,[2],0.58 mg/dL
same,GLUCOSE,[2],180.67 mg/dL
same,PHOSPHORUS,[2],11.28 mg/dL
same,POTASSIUM,[2],7.05 MEQ/L
same,SODIUM,[2],148.17 MEQ/L
same,TOTAL BILIRUBIN,[2],0.72 mg/dL
same,TOTAL PROTEIN,[2],6.83 G/DL
same,BASOPHIL,[3],0%
same,EOSINOPHIL,[3],0.33%
same,ERYTHROCYTE COUNT,[3],6.01 x10E6/uL
same,HEMATOCRIT,[3],36.27%
same,HEMOGLOBIN,[3],14.33 G/DL
same,LEUKOCYTE COUNT,[3],12.73 x10E3/uL
same,LYMPHOCYTE,[3],85.67%
same,MEAN CORPUSCULAR HEMOGLOBIN,[3],23.9 pg
same,MEAN CORPUSCULAR HEMOGLOBIN CONCENTRATION,[3],39.57 G/DL
same,MEAN CORPUSCULAR VOLUME,[3],60.4 fL
same,MONOCYTE,[3],2%
same,NEUTROPHIL,[3],12%
same,PLATELET COUNT,[3],1302.67 x10E3/uL
same,ALANINE AMINOTRANSFERASE,[3],37.67 u/L
same,ALBUMIN,[3],3.63 G/DL
same,ALKALINE PHOSPHATASE,[3],354.67 u/L
same,ASPARTATE AMINOTRANSFERASE,[3],62.33 u/L
same,BLOOD UREA NITROGEN,[3],14 mg/dL
same,CHLORIDE,[3],102.67 MEQ/L
same,CHOLESTEROL,[3],65.33 mg/dL
same,CREATINE PHOSPHOKINASE,[3],133.33 u/L
same,CREATININE,[3],0.63 mg/dL
same,GLUCOSE,[3],179.67 mg/dL
same,PHOSPHORUS,[3],11.7 mg/dL
same,POTASSIUM,[3],6.7 MEQ/L
same,SODIUM,[3],150.67 MEQ/L
same,TOTAL BILIRUBIN,[3],0.53 mg/dL
same,TOTAL PROTEIN,[3],6.6 G/DL
same,BASOPHIL,[4],0%
same,EOSINOPHIL,[4],0.33%
same,ERYTHROCYTE COUNT,[4],6.36 x10E6/uL
same,HEMATOCRIT,[4],39.27%
same,HEMOGLOBIN,[4],15.3 G/DL
same,LEUKOCYTE COUNT,[4],12.77 x10E3/uL
same,LYMPHOCYTE,[4],87.33%
same,MEAN CORPUSCULAR HEMOGLOBIN,[4],24.03 pg
same,MEAN CORPUSCULAR HEMOGLOBIN CONCENTRATION,[4],38.97 G/DL
same,MEAN CORPUSCULAR VOLUME,[4],61.73 fL
same,MONOCYTE,[4],2.67%
same,NEUTROPHIL,[4],9.67%
same,PLATELET COUNT,[4],1082 x10E3/uL
same,ALANINE AMINOTRANSFERASE,[4],45 u/L
same,ALBUMIN,[4],3.6 G/DL
same,ALKALINE PHOSPHATASE,[4],424.67 u/L
same,ASPARTATE AMINOTRANSFERASE,[4],67.67 u/L
same,BLOOD UREA NITROGEN,[4],15.67 mg/dL
same,CHLORIDE,[4],104.33 MEQ/L
same,CHOLESTEROL,[4],65 mg/dL
same,CREATINE PHOSPHOKINASE,[4],107.33 u/L
same,CREATININE,[4],0.6 mg/dL
same,GLUCOSE,[4],195 mg/dL
same,PHOSPHORUS,[4],12.53 mg/dL
same,POTASSIUM,[4],6.67 MEQ/L
same,SODIUM,[4],151 MEQ/L
same,TOTAL BILIRUBIN,[4],0.63 mg/dL
same,TOTAL PROTEIN,[4],6.53 G/DL
